Data from the NIST ThermoML archive (doi:10.1021/je900537y).
Numbers after ± are expanded uncertainties.

Assay: molar heat capacity at constant pressure
Conditions: 101.33 kPa, Liquid, Small sample (50 mg) DSC

Question: Which “molar heat capacity at constant pressure” value (302.15 K) does the source give for `NCCCCCCCN` [1,7-diaminoheptane] here?
Answer: 332.76 ± 5.2 J/K/mol

Question: And the “molar heat capacity at constant pressure” value (303.65 K)?
Answer: 332.93 ± 5.2 J/K/mol

Question: And the “molar heat capacity at constant pressure” value (305.15 K)?
Answer: 333.11 ± 5.2 J/K/mol

Question: And the “molar heat capacity at constant pressure” value (306.65 K)?
Answer: 333.29 ± 5.2 J/K/mol

Question: And the “molar heat capacity at constant pressure” value (308.15 K)?
Answer: 333.48 ± 5.2 J/K/mol

Question: And the “molar heat capacity at constant pressure” value (309.65 K)?
Answer: 333.67 ± 5.2 J/K/mol

Question: What about the “molar heat capacity at constant pressure” value (311.15 K) of the same compound?
Answer: 333.86 ± 5.2 J/K/mol

Question: What about the “molar heat capacity at constant pressure” value (312.65 K) of the same compound?
Answer: 334.06 ± 5.2 J/K/mol

Question: And the “molar heat capacity at constant pressure” value (314.15 K)?
Answer: 334.27 ± 5.2 J/K/mol

Question: And the “molar heat capacity at constant pressure” value (315.65 K)?
Answer: 334.48 ± 5.2 J/K/mol

Question: And the “molar heat capacity at constant pressure” value (317.15 K)?
Answer: 334.7 ± 5.2 J/K/mol

Question: And the “molar heat capacity at constant pressure” value (318.65 K)?
Answer: 334.92 ± 5.2 J/K/mol

Question: What about the “molar heat capacity at constant pressure” value (320.15 K) of the same compound?
Answer: 335.15 ± 5.2 J/K/mol

Question: And the “molar heat capacity at constant pressure” value (321.65 K)?
Answer: 335.38 ± 5.2 J/K/mol

Question: And the “molar heat capacity at constant pressure” value (323.15 K)?
Answer: 335.62 ± 5.2 J/K/mol

Question: And the “molar heat capacity at constant pressure” value (324.65 K)?
Answer: 335.87 ± 5.2 J/K/mol

Question: What about the “molar heat capacity at constant pressure” value (326.15 K) of the same compound?
Answer: 336.12 ± 5.2 J/K/mol

Question: And the “molar heat capacity at constant pressure” value (327.65 K)?
Answer: 336.38 ± 5.2 J/K/mol

Question: What about the “molar heat capacity at constant pressure” value (329.15 K) of the same compound?
Answer: 336.64 ± 5.2 J/K/mol

Question: What about the “molar heat capacity at constant pressure” value (330.65 K) of the same compound?
Answer: 336.91 ± 5.2 J/K/mol

Question: And the “molar heat capacity at constant pressure” value (332.15 K)?
Answer: 337.18 ± 5.2 J/K/mol

Question: And the “molar heat capacity at constant pressure” value (333.65 K)?
Answer: 337.47 ± 5.2 J/K/mol

Question: And the “molar heat capacity at constant pressure” value (335.15 K)?
Answer: 337.76 ± 5.2 J/K/mol

Question: What about the “molar heat capacity at constant pressure” value (336.65 K) of the same compound?
Answer: 338.05 ± 5.2 J/K/mol

Question: What about the “molar heat capacity at constant pressure” value (338.15 K) of the same compound?
Answer: 338.35 ± 5.2 J/K/mol

Question: What about the “molar heat capacity at constant pressure” value (339.65 K) of the same compound?
Answer: 338.66 ± 5.2 J/K/mol

Question: And the “molar heat capacity at constant pressure” value (341.15 K)?
Answer: 338.98 ± 5.2 J/K/mol

Question: And the “molar heat capacity at constant pressure” value (342.65 K)?
Answer: 339.3 ± 5.3 J/K/mol

Question: What about the “molar heat capacity at constant pressure” value (344.15 K) of the same compound?
Answer: 339.63 ± 5.3 J/K/mol

Question: And the “molar heat capacity at constant pressure” value (345.65 K)?
Answer: 339.97 ± 5.3 J/K/mol

Question: And the “molar heat capacity at constant pressure” value (347.15 K)?
Answer: 340.31 ± 5.3 J/K/mol

Question: And the “molar heat capacity at constant pressure” value (348.65 K)?
Answer: 340.66 ± 5.3 J/K/mol

Question: And the “molar heat capacity at constant pressure” value (350.15 K)?
Answer: 341.02 ± 5.3 J/K/mol

Question: And the “molar heat capacity at constant pressure” value (351.65 K)?
Answer: 341.39 ± 5.3 J/K/mol

Question: What about the “molar heat capacity at constant pressure” value (353.15 K) of the same compound?
Answer: 341.76 ± 5.3 J/K/mol

Question: Which results are given for `NCCCCCCCCCN` [1,9-diaminononane]?
Answer: molar heat capacity at constant pressure (311.15 K): 398.93 ± 6.2 J/K/mol; molar heat capacity at constant pressure (312.65 K): 399.04 ± 6.2 J/K/mol; molar heat capacity at constant pressure (314.15 K): 399.17 ± 6.2 J/K/mol; molar heat capacity at constant pressure (315.65 K): 399.32 ± 6.2 J/K/mol; molar heat capacity at constant pressure (317.15 K): 399.47 ± 6.2 J/K/mol; molar heat capacity at constant pressure (318.65 K): 399.64 ± 6.2 J/K/mol; molar heat capacity at constant pressure (320.15 K): 399.82 ± 6.2 J/K/mol; molar heat capacity at constant pressure (321.65 K): 400.02 ± 6.2 J/K/mol; molar heat capacity at constant pressure (323.15 K): 400.22 ± 6.2 J/K/mol; molar heat capacity at constant pressure (324.65 K): 400.44 ± 6.2 J/K/mol; molar heat capacity at constant pressure (326.15 K): 400.67 ± 6.2 J/K/mol; molar heat capacity at constant pressure (327.65 K): 400.92 ± 6.2 J/K/mol; molar heat capacity at constant pressure (329.15 K): 401.17 ± 6.2 J/K/mol; molar heat capacity at constant pressure (330.65 K): 401.44 ± 6.2 J/K/mol; molar heat capacity at constant pressure (332.15 K): 401.72 ± 6.2 J/K/mol; molar heat capacity at constant pressure (333.65 K): 402.02 ± 6.2 J/K/mol; molar heat capacity at constant pressure (335.15 K): 402.32 ± 6.2 J/K/mol; molar heat capacity at constant pressure (336.65 K): 402.64 ± 6.2 J/K/mol; molar heat capacity at constant pressure (338.15 K): 402.97 ± 6.2 J/K/mol; molar heat capacity at constant pressure (339.65 K): 403.32 ± 6.2 J/K/mol; molar heat capacity at constant pressure (341.15 K): 403.67 ± 6.2 J/K/mol; molar heat capacity at constant pressure (342.65 K): 404.04 ± 6.3 J/K/mol; molar heat capacity at constant pressure (344.15 K): 404.43 ± 6.3 J/K/mol; molar heat capacity at constant pressure (345.65 K): 404.82 ± 6.3 J/K/mol; molar heat capacity at constant pressure (347.15 K): 405.23 ± 6.3 J/K/mol; molar heat capacity at constant pressure (348.65 K): 405.65 ± 6.3 J/K/mol; molar heat capacity at constant pressure (350.15 K): 406.08 ± 6.3 J/K/mol; molar heat capacity at constant pressure (351.65 K): 406.52 ± 6.3 J/K/mol; molar heat capacity at constant pressure (353.15 K): 406.98 ± 6.3 J/K/mol

Question: What does the source list for `NCCN` [ethane-1,2-diamine]?
Answer: molar heat capacity at constant pressure (293.15 K): 172.34 ± 2.7 J/K/mol; molar heat capacity at constant pressure (294.65 K): 172.43 ± 2.7 J/K/mol; molar heat capacity at constant pressure (296.15 K): 172.53 ± 2.7 J/K/mol; molar heat capacity at constant pressure (297.65 K): 172.63 ± 2.7 J/K/mol; molar heat capacity at constant pressure (298.15 K): 172.66 ± 2.7 J/K/mol; molar heat capacity at constant pressure (299.15 K): 172.73 ± 2.7 J/K/mol; molar heat capacity at constant pressure (300.65 K): 172.84 ± 2.7 J/K/mol; molar heat capacity at constant pressure (302.15 K): 172.95 ± 2.7 J/K/mol; molar heat capacity at constant pressure (303.65 K): 173.06 ± 2.7 J/K/mol; molar heat capacity at constant pressure (305.15 K): 173.17 ± 2.7 J/K/mol; molar heat capacity at constant pressure (306.65 K): 173.29 ± 2.7 J/K/mol; molar heat capacity at constant pressure (308.15 K): 173.41 ± 2.7 J/K/mol; molar heat capacity at constant pressure (309.65 K): 173.53 ± 2.7 J/K/mol; molar heat capacity at constant pressure (311.15 K): 173.66 ± 2.7 J/K/mol; molar heat capacity at constant pressure (312.65 K): 173.79 ± 2.7 J/K/mol; molar heat capacity at constant pressure (314.15 K): 173.92 ± 2.7 J/K/mol; molar heat capacity at constant pressure (315.65 K): 174.05 ± 2.7 J/K/mol; molar heat capacity at constant pressure (317.15 K): 174.18 ± 2.7 J/K/mol; molar heat capacity at constant pressure (318.65 K): 174.31 ± 2.7 J/K/mol; molar heat capacity at constant pressure (320.15 K): 174.45 ± 2.7 J/K/mol; molar heat capacity at constant pressure (321.65 K): 174.59 ± 2.7 J/K/mol; molar heat capacity at constant pressure (323.15 K): 174.72 ± 2.7 J/K/mol; molar heat capacity at constant pressure (324.65 K): 174.86 ± 2.7 J/K/mol; molar heat capacity at constant pressure (326.15 K): 175 ± 2.7 J/K/mol; molar heat capacity at constant pressure (327.65 K): 175.15 ± 2.7 J/K/mol; molar heat capacity at constant pressure (329.15 K): 175.29 ± 2.7 J/K/mol; molar heat capacity at constant pressure (330.65 K): 175.43 ± 2.7 J/K/mol; molar heat capacity at constant pressure (332.15 K): 175.58 ± 2.7 J/K/mol; molar heat capacity at constant pressure (333.65 K): 175.72 ± 2.7 J/K/mol; molar heat capacity at constant pressure (335.15 K): 175.86 ± 2.7 J/K/mol; molar heat capacity at constant pressure (336.65 K): 176.01 ± 2.7 J/K/mol; molar heat capacity at constant pressure (338.15 K): 176.15 ± 2.7 J/K/mol; molar heat capacity at constant pressure (339.65 K): 176.3 ± 2.7 J/K/mol; molar heat capacity at constant pressure (341.15 K): 176.44 ± 2.7 J/K/mol; molar heat capacity at constant pressure (342.65 K): 176.59 ± 2.7 J/K/mol; molar heat capacity at constant pressure (344.15 K): 176.73 ± 2.7 J/K/mol; molar heat capacity at constant pressure (345.65 K): 176.87 ± 2.7 J/K/mol; molar heat capacity at constant pressure (347.15 K): 177.02 ± 2.7 J/K/mol; molar heat capacity at constant pressure (348.65 K): 177.16 ± 2.7 J/K/mol; molar heat capacity at constant pressure (350.15 K): 177.3 ± 2.8 J/K/mol; molar heat capacity at constant pressure (351.65 K): 177.44 ± 2.8 J/K/mol; molar heat capacity at constant pressure (353.15 K): 177.58 ± 2.8 J/K/mol
